Source: patent US11000710B2, “Composition and method for the generation of chlorine dioxide from the oxidative consumption of biomolecules” (priority 2009, dated 2021)

Assay: Level of HClO2 and ClO2^• producible from ClO2^− as a function of pH
Format: physicochemical

Compound	total ClO2^• producible, maximum percentage of total oxyhalogen oxidant (pH 4.50) [%]	total ClO2^• producible, maximum percentage of total oxyhalogen oxidant (pH 7.00) [%]	level of HClO2 generated, of total available oxyhalogen oxidant (pH 4.50) [%]	level of HClO2 generated, of total available oxyhalogen oxidant (pH 7.00) [%]
[O][Cl+][O-] [ClO2^•, chlorine dioxide]	≤ 0.32	≤ 0.0010		
[O-][Cl+]O [HClO2]			0.64	0.0020
